What follows are molecules tested against T1, human V1a receptor (Homo sapiens, UniProt P37288) (assay: human V1a receptor binding studies (3H-Vasopressin SPA, HEK293 cell membranes)). Conditions: competition with 3H-Vasopressin on membranes of HEK293 cells transiently transfected with human V1a receptor; Ki by Cheng-Prussoff equation; read-out: pKi (hV1a) (converted).
T1 construct: expressed in transfected cells; host or cells: HEK293 cells, transiently transfected; cell membranes
Method: The human V1a receptor was cloned by RT-PCR from total human liver RNA. The coding sequence was subcloned in an expression vector after sequencing to confirm the identity of the amplified sequence. […] Cell membranes were prepared from HEK293 cells transiently transfected with the expression vector and grown in 20 liter fermenters with the following protocol.
50 g of cells are re-suspended in 30 ml freshly prepared ice cold Lysis buffer (50 mM HEPES, 1 mM EDTA, 10 mM MgCl2 adjusted to pH= 7.4 + complete cocktail of protease inhibitor (Roche Diagnostics)). Homogenized with Polytron for Imin and sonicated on ice for 2x 2 minutes at 80% intensity (Vibracell sonicator). The preparation is centrifuged 20 min at 500 g at 4° C., the pellet is discarded and the supernatant centrifuged 1 hour at 43 ′000g at 4° C. (19 ′000rpm). The pellet is re-suspended in 12.5 ml Lysis buffer+12.5 ml Sucrose 20% and homogenized using a Polytron for 1-2 min. The protein concentration is determined by the Bradford method and aliquots are stored at -80° C. until use. For binding studies 60 mg Yttrium silicate SPA beads (Amersham) are mixed with an aliquot of membrane in binding buffer (50 mM Tris, 120 mM NaCl, 5 mM KCl, 2 mM CaCl2, 10 mM MgCl2) for 15 minutes with mixing. 50 µl of bead/membrane mixture is then added to each well of a 96 well plate, followed by 50 µl of 4 nM 3H-Vasopressin (American Radiolabeled Chemicals). For total binding measurement 100 µl of binding buffer are added to the respective wells, for non-specific binding 100 µl of 8.4 mM cold vasopressin and for compound testing 100 µl of a serial dilution of each compound in 2% DMSO. The plate is incubated 1 h at room temperature, centrifuged 1 min at 1000 g and counted on a Packard Top-Count. Non-specific binding counts are subtracted from each well and data is normalized to the maximum specific binding set at 100%. To calculate an IC50 the curve is fitted using a non-linear regression model (XLfit) and the Ki is calculated using the Cheng-Prussoff equation.

T1 sequence (P37288 whole entry): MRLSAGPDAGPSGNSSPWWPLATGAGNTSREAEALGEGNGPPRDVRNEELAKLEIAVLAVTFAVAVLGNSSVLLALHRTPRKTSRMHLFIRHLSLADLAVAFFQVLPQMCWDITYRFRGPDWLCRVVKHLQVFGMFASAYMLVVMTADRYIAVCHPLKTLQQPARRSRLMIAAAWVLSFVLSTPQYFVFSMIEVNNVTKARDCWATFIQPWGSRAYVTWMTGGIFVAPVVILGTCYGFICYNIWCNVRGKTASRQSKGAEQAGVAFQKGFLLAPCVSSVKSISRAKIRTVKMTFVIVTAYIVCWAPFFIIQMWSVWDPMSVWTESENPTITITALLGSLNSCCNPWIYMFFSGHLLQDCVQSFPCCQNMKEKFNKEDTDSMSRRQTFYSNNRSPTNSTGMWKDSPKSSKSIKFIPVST

| Ki | SMILES |
| --- | --- |
| 2.14 nM | FC(F)(F)c1nnc([C@H]2CC[C@H](Oc3ccccn3)CC2)n1-c1ccc(Cl)cc1 [Example 33, trans((4-(4-(4-Chlorophenyl)-5-(trifluoromethyl)-4H-1,2,4-triazol-3-yl)cyclohexyl)oxy)pyridine] |
| 20 nM | CS(=O)(=O)c1nnc([C@H]2CC[C@H](Oc3ccccn3)CC2)n1-c1ccc(Cl)cc1 [Example 48, trans((4-(4-(4-Chlorophenyl)-5-(methylsulfonyl)-4H-1,2,4-triazol-3-yl)cyclohexyl)oxy)pyridine] |
| 5.25 nM | Cc1nnc([C@H]2CC[C@H](Oc3ccccn3)CC2)n1-c1ccccc1 [Example 5, trans((4-(5-Methyl-4-phenyl-4H-1,2,4-triazol-3-yl)cyclohexyl)oxy)pyridine] |
| 0.195 nM | Cc1nnc([C@H]2CC[C@H](Oc3ccccn3)CC2)n1-c1ccc(Br)cc1 [Example 9, trans((4-(4-(4-Bromophenyl)-5-methyl-4H-1,2,4-triazol-3-yl)cyclohexyl)oxy)pyridine] |
| 1.58 nM | CSc1cc(Cl)ccc1-n1c(C)nnc1[C@H]1CC[C@H](Oc2ccccn2)CC1 [Example 14, trans[4-[4-(4-Chloromethylsulfanylphenyl)-5-methyl-1,2,4-triazol-3-yl]cyclohexyl]oxypyridine] |
| 5.01 nM | Cc1cnc(O[C@H]2CC[C@H](c3nnc(C)n3-c3ccc(Cl)cc3)CC2)cn1 [Example 70, trans[4-[4-(4-Chlorophenyl)-5-methyl-1,2,4-triazol-3-yl]cyclohexyl]oxy-5-methylpyrazine] |
| 0.912 nM | Cc1nnc([C@H]2CC[C@H](Oc3ccccn3)CC2)n1-c1ccc(Cl)cc1 [Example 3, trans(4-(4-(4-Chlorophenyl)-5-methyl-4H-1,2,4-triazol-3-yl)cyclohexyloxy)pyridine] |
| 7.08 nM | Cc1nnc([C@H]2CC[C@H](Oc3ccccn3)CC2)n1-c1ccc(F)c(F)c1 [Example 21, trans((4-(4-(3,4-Difluorophenyl)-5-methyl-4H-1,2,4-triazol-3-yl)cyclohexyl)oxy)pyridine] |
| 33.1 nM | CN(C)CCc1nnc([C@H]2CC[C@H](Oc3ccccn3)CC2)n1-c1ccc(Cl)cc1 [Example 47] |
| 0.646 nM | COc1nnc([C@H]2CC[C@H](Oc3ccccn3)CC2)n1-c1ccc(Cl)cc1 [Example 49, trans((4-(4-(4-Chlorophenyl)-5-methoxy-4H-1,2,4-triazol-3-yl)cyclohexyl)oxy)pyridine] |
| 17 nM | Cc1nnc([C@H]2CC[C@H](Oc3ccccn3)CC2)n1-c1ccc(Cl)cn1 [Example 23] |
| 0.447 nM | Cc1ccc(-n2c(C)nnc2[C@H]2CC[C@H](Oc3ccc(C)cn3)CC2)cc1 [Example 57, transMethyl-2-[4-[5-methyl-4-(4-methylphenyl)-1,2,4-triazol-3-yl]cyclohexyl] oxypyridine] |
| 2.95 nM | COCc1nnc([C@H]2CC[C@H](Oc3cnc(C)cn3)CC2)n1-c1ccc(Cl)cc1 [Example 72, trans[4-[4-(4-Chlorophenyl)-5-(methoxymethyl)-1,2,4-triazol-3-yl]cyclohexyl]oxy-5-methylpyrazine] |
| 0.575 nM | CSCCc1nnc([C@H]2CC[C@H](Oc3ccccn3)CC2)n1-c1ccc(Cl)cc1 [Example 46, trans((4-(4-(4-Chlorophenyl)-5-(2-(methylthio)ethyl)-4H-1,2,4-triazol-3-yl)cyclohexyl)oxy)pyridine] |
| 38.9 nM | Cc1nnc([C@H]2CC[C@H](Oc3ccccn3)CC2)n1-c1ccc(C#N)cc1 [Example 8, trans(3-Methyl-5-((1r,4r)(pyridin-2-yloxy)cyclohexyl)-4H-1,2,4-triazolyl)benzonitrile] |
| 0.891 nM | Cc1cc(Cl)ccc1-n1cnnc1[C@H]1CC[C@H](Oc2ccccn2)CC1 [Example 53] |
| 3.39 nM | Cc1ccc(-n2c(C(F)F)nnc2[C@H]2CC[C@H](Oc3ccccn3)CC2)cc1 [Example 31, trans((4-(5-(Difluoromethyl)-4-(p-tolyl)-4H-1,2,4-triazol-3-yl)cyclohexyl)oxy)pyridine] |
| 32.4 nM | CN(C)CCOc1nnc([C@H]2CC[C@H](Oc3ccccn3)CC2)n1-c1ccc(Cl)cc1 [Example 51] |

| Ki | SMILES |
| --- | --- |
| 8.13 nM | COCc1nnc([C@H]2CC[C@H](Oc3cnccn3)CC2)n1-c1ccc(C)cc1 [Example 68, trans[4-[5-(Methoxymethyl)-4-(4-methylphenyl)-1,2,4-triazol-3-yl]cyclohexyl]oxypyrazine] |
| 2.14 nM | CN(C)Cc1nnc([C@H]2CC[C@H](Oc3ccccn3)CC2)n1-c1ccc(Cl)cc1 [Example 43, trans(4-(4-Chlorophenyl)-5-(4-(pyridin-2-yloxy)cyclohexyl)-4H-1,2,4-triazol-3-yl)-N,N-dimethylmethanamine] |
| 2.04 nM | Cc1nnc([C@H]2CC[C@H](Oc3ccccn3)CC2)n1-c1ccc(F)cc1 [Example 4, trans((4-(4-(4-Fluorophenyl)-5-methyl-4H-1,2,4-triazol-3-yl)cyclohexyl)oxy)pyridine] |
| 2.45 nM | COCc1nnc([C@H]2CC[C@H](Oc3cnccn3)CC2)n1-c1ccc(Cl)cc1 [Example 69, trans[4-[4-(4-Chlorophenyl)-5-(methoxymethyl)-1,2,4-triazol-3-yl]cyclohexyl]oxypyrazine] |
| 0.269 nM | Cc1cc(Cl)ccc1-n1c(C)nnc1[C@H]1CC[C@H](Oc2ccccn2)CC1 [Example 13] |
| 17.8 nM | Cc1ccc(-n2c(C)nnc2[C@H]2CC[C@H](Oc3cnc(C)cn3)CC2)cc1 [Example 71, transMethyl-5-[4-[5-methyl-4-(4-methylphenyl)-1,2,4-triazol-3-yl]cyclohexyl]oxypyrazine] |
| 91.2 nM | C[S@+]([O-])Cc1nnc([C@H]2CC[C@H](Oc3ccccn3)CC2)n1-c1ccc(Cl)cc1 (stereo in doubt) [Example 38, trans-(-)-2-((4-(4-(4-Chlorophenyl)-5-((methylsulfinyl)methyl)-4H-1,2,4-triazol-3-yl)cyclohexyl)oxy)pyridine] |
| 7.59 nM | COc1cc(Cl)ccc1-n1c(C)nnc1[C@H]1CC[C@@H](Oc2ccccc2)CC1 [Example 2, cis(4-Chloro-2-methoxy-phenyl)-3-methyl-5-(4-phenoxy-cyclohexyl)-4H-[1,2,4]triazole] |
| 2.29 nM | Cc1nnc([C@H]2CC[C@H](Oc3ccc(C(F)F)cn3)CC2)n1-c1ccc(Cl)cc1 [Example 60, trans((4-(4-(4-Chlorophenyl)-5-methyl-4H-1,2,4-triazol-3-yl)cyclohexyl)oxy)-5-(difluoromethyl)pyridine] |
| 3.47 nM | COCc1nnc([C@H]2CC[C@H](Oc3ccc(C)nc3)CC2)n1-c1ccc(C)cc1 [Example 66, trans[4-[5-(Methoxymethyl)-4-(4-methylphenyl)-1,2,4-triazol-3-yl]cyclohexyl]oxy-2-methylpyridine] |
| 64.6 nM | C[S+]([O-])Cc1nnc([C@H]2CC[C@H](Oc3ccccn3)CC2)n1-c1ccc(Cl)cc1 (mixture of isomers) [Example 37, trans-(rac)-2-((4-(4-(4-Chlorophenyl)-5-((methylsulfinyl)methyl)-4H-1,2,4-triazol-3-yl)cyclohexyl)oxy)pyridine] |
| 1.82 nM | Cc1ccc(-n2c(C)nnc2[C@H]2CC[C@H](Oc3ccccn3)CC2)cc1F [Example 20, trans((4-(4-(3-Fluoro-4-methylphenyl)-5-methyl-4H-1,2,4-triazol-3-yl)cyclohexyl)oxy)pyridine] |
| 0.324 nM | Cc1ccc(O[C@H]2CC[C@H](c3nnc(C)n3-c3ccc(Cl)cc3)CC2)cn1 [Example 64] |
| 0.661 nM | COCc1nnc([C@H]2CC[C@H](Oc3ccc(C)nc3)CC2)n1-c1ccc(Cl)cc1 [Example 67, trans[4-[4-(4-Chlorophenyl)(methoxymethyl)-1,2,4-triazol-3-yl]cyclohexyl]oxy-2-methylpyridine] |
| 0.759 nM | Cc1nnc([C@H]2CC[C@H](Oc3ccccn3)CC2)n1-c1ccc(Cl)cc1F [Example 12, trans((4-(4-(4-Chlorofluorophenyl)-5-methyl-4H-1,2,4-triazol-3-yl)cyclohexyl)oxy)pyridine] |
| 61.7 nM | Cc1nnc([C@H]2CC[C@H](Oc3ccccn3)CC2)n1-c1ncc(Cl)cc1F [Example 24, transChloro-3-fluoro-2-(3-methyl(4-(pyridin-2-yloxy)cyclohexyl)-4H-1,2,4-triazol-4-yl)pyridine] |
| 2.19 nM | Cc1ccc(-n2cnnc2[C@H]2CC[C@H](Oc3ccccn3)CC2)c(C)c1 [Example 54, trans((4-(4-(2,4-Dimethylphenyl)-4H-1,2,4-triazol-3-yl)cyclohexyl)oxy)pyridine] |
| 0.631 nM | COCc1nnc([C@H]2CC[C@H](Oc3ccccn3)CC2)n1-c1ccc(Cl)cc1 [Example 35, trans(4-(4-(4-Chlorophenyl)-5-(methoxymethyl)-4H-1,2,4-triazol-3-yl)cyclohexyloxy)pyridine] |
